Measurements: the NIST ThermoML archive (doi:10.1016/j.jct.2014.05.019)
Numbers after ± are expanded uncertainties.

Assay: xn = mol fraction of the nth substance listed
Conditions: 100 kPa, Liquid; for electrical conductivity: Alternating current cell with electrodes; for viscosity: Falling or rolling sphere viscometry; for mass density: Vibrating tube method

NC(CO)C(=O)[O-].[Na+] (stereo not drawn) [sodium DL-serine] + O
Conditions | electrical conductivity [S/m] | mass density [kg/m3] | viscosity [mPa·s]
303.15 K, x1 = 0.009 | 2.7 ± 0.05 | 1028.3 ± 1 | 0.9965 ± 0.041
303.15 K, x1 = 0.018 | 4.28 ± 0.09 | 1060.1 ± 1 | 1.221 ± 0.041
303.15 K, x1 = 0.028 | 5.19 ± 0.1 | 1090.9 ± 1 | 1.552 ± 0.042
303.15 K, x1 = 0.037 | 5.57 ± 0.11 | 1121.1 ± 1 | 1.967 ± 0.043
303.15 K, x1 = 0.048 | 5.59 ± 0.11 | 1150.7 ± 1 | 2.599 ± 0.045
303.15 K, x1 = 0.058 | 5.3 ± 0.11 | 1181.9 ± 1 | –
303.15 K, x1 = 0.059 | – | – | 3.496 ± 0.048
308.15 K, x1 = 0.009 | 2.98 ± 0.06 | 1026.5 ± 1 | 0.9018 ± 0.041
308.15 K, x1 = 0.018 | 4.73 ± 0.09 | 1058.1 ± 1 | 1.097 ± 0.041
308.15 K, x1 = 0.028 | 5.74 ± 0.11 | 1088.8 ± 1 | 1.377 ± 0.041
308.15 K, x1 = 0.037 | 6.2 ± 0.12 | 1118.7 ± 1 | 1.739 ± 0.042
308.15 K, x1 = 0.048 | 6.27 ± 0.13 | 1148.2 ± 1 | 2.28 ± 0.044
308.15 K, x1 = 0.058 | 5.99 ± 0.12 | 1179.2 ± 1 | –
308.15 K, x1 = 0.059 | – | – | 3.027 ± 0.046
313.15 K, x1 = 0.009 | 3.27 ± 0.07 | 1024.6 ± 1 | 0.8058 ± 0.041
313.15 K, x1 = 0.018 | 5.2 ± 0.1 | 1055.9 ± 1 | 0.9981 ± 0.041
313.15 K, x1 = 0.028 | 6.3 ± 0.13 | 1086.4 ± 1 | 1.236 ± 0.041
313.15 K, x1 = 0.037 | 6.82 ± 0.14 | 1116.3 ± 1 | 1.563 ± 0.042
313.15 K, x1 = 0.048 | 6.96 ± 0.14 | 1145.5 ± 1 | 2.007 ± 0.043
313.15 K, x1 = 0.058 | 6.69 ± 0.13 | 1176.5 ± 1 | –
313.15 K, x1 = 0.059 | – | – | 2.661 ± 0.045
318.15 K, x1 = 0.009 | 3.57 ± 0.07 | 1022.5 ± 1 | 0.7337 ± 0.04
318.15 K, x1 = 0.018 | 5.64 ± 0.11 | 1053.6 ± 1 | 0.8941 ± 0.041
318.15 K, x1 = 0.028 | 6.87 ± 0.14 | 1084 ± 1 | 1.116 ± 0.041
318.15 K, x1 = 0.037 | 7.49 ± 0.15 | 1113.7 ± 1 | 1.394 ± 0.041
318.15 K, x1 = 0.048 | 7.66 ± 0.15 | 1142.8 ± 1 | 1.792 ± 0.042
318.15 K, x1 = 0.058 | 7.44 ± 0.15 | 1173.7 ± 1 | –
318.15 K, x1 = 0.059 | – | – | 2.351 ± 0.044
323.15 K, x1 = 0.009 | 3.87 ± 0.08 | 1020.2 ± 1 | 0.6788 ± 0.04
323.15 K, x1 = 0.018 | 6.12 ± 0.12 | 1051.2 ± 1 | 0.8127 ± 0.041
323.15 K, x1 = 0.028 | 7.46 ± 0.15 | 1081.5 ± 1 | 1.012 ± 0.041
323.15 K, x1 = 0.037 | 8.17 ± 0.16 | 1111.1 ± 1 | 1.26 ± 0.041
323.15 K, x1 = 0.048 | 8.38 ± 0.17 | 1140.1 ± 1 | 1.608 ± 0.042
323.15 K, x1 = 0.058 | 8.19 ± 0.16 | 1170.8 ± 1 | –
323.15 K, x1 = 0.059 | – | – | 2.091 ± 0.043
328.15 K, x1 = 0.009 | 4.17 ± 0.08 | 1017.8 ± 1 | 0.6217 ± 0.04
328.15 K, x1 = 0.018 | 6.59 ± 0.13 | 1048.7 ± 1 | 0.7448 ± 0.04
328.15 K, x1 = 0.028 | 8.05 ± 0.16 | 1078.9 ± 1 | 0.9186 ± 0.041
328.15 K, x1 = 0.037 | 8.86 ± 0.18 | 1108.3 ± 1 | 1.149 ± 0.041
328.15 K, x1 = 0.048 | 9.12 ± 0.18 | 1137.3 ± 1 | 1.452 ± 0.042
328.15 K, x1 = 0.058 | 8.97 ± 0.18 | 1167.9 ± 1 | –
328.15 K, x1 = 0.059 | – | – | 1.872 ± 0.042
333.15 K, x1 = 0.009 | 4.48 ± 0.09 | 1015.3 ± 1 | 0.575 ± 0.04
333.15 K, x1 = 0.018 | 7.06 ± 0.14 | 1046 ± 1 | 0.692 ± 0.04
333.15 K, x1 = 0.028 | 8.64 ± 0.17 | 1076.1 ± 1 | 0.8431 ± 0.041
333.15 K, x1 = 0.037 | 9.52 ± 0.19 | 1105.5 ± 1 | 1.055 ± 0.041
333.15 K, x1 = 0.048 | 9.82 ± 0.2 | 1134.4 ± 1 | 1.321 ± 0.041
333.15 K, x1 = 0.058 | 9.74 ± 0.19 | 1164.9 ± 1 | –
333.15 K, x1 = 0.059 | – | – | 1.709 ± 0.042
338.15 K, x1 = 0.009 | 4.8 ± 0.1 | 1012.7 ± 1 | 0.537 ± 0.04
338.15 K, x1 = 0.018 | 7.53 ± 0.15 | 1043.2 ± 1 | 0.6342 ± 0.04
338.15 K, x1 = 0.028 | 9.24 ± 0.18 | 1073.3 ± 1 | 0.7788 ± 0.04
338.15 K, x1 = 0.037 | 10.2 ± 0.2 | 1102.6 ± 1 | 0.9608 ± 0.041
338.15 K, x1 = 0.048 | 10.6 ± 0.21 | 1131.4 ± 1 | 1.206 ± 0.041
338.15 K, x1 = 0.058 | 10.5 ± 0.21 | 1161.8 ± 1 | –
338.15 K, x1 = 0.059 | – | – | 1.531 ± 0.042
343.15 K, x1 = 0.009 | 5.1 ± 0.1 | 1009.9 ± 1 | 0.4983 ± 0.04
343.15 K, x1 = 0.018 | 8.01 ± 0.16 | 1040.4 ± 1 | 0.5945 ± 0.04
343.15 K, x1 = 0.028 | 9.84 ± 0.2 | 1070.4 ± 1 | 0.72 ± 0.04
343.15 K, x1 = 0.037 | 10.8 ± 0.22 | 1099.6 ± 1 | 0.8858 ± 0.041
343.15 K, x1 = 0.048 | 11.3 ± 0.23 | 1128.4 ± 1 | 1.108 ± 0.041
343.15 K, x1 = 0.058 | 11.3 ± 0.23 | 1158.7 ± 1 | –
343.15 K, x1 = 0.059 | – | – | 1.399 ± 0.041
